The numbers were not newly measured in patent US20070134395A1, “Method of reducing manganese in defatted soy isolate” (priority 2005, published 2007), which cites them from elsewhere.

For series [1] the following is noted: calcium-deficient rat pups.
The conditions of series [2]: neonate, excess Mn not metabolized.
The conditions of series [3]: neonate, from soy-based infant formula.

Molecules are shown by their SMILES. Read-outs that look alike come from different tables or passages of the source.

Regarding `CC(=O)[O-].CC(=O)[O-].[Mg+2]` [magnesium acetate], the “greater amount of Mn in the cerebral column tissue and fluids” value in series [1] was 900%.

In the case of `[Mn+2]` [Mn, Manganese], the “intestinal absorption of Mn” value (adults) is “one percent to about two percent” and the “intestinal absorption of Mn” value (neonatal, animal models) is “seventy percent to about eighty percent”. Further, in series [2], the “share of excess Mn stored in the basal ganglia region” value was “about eight”. For the same compound, the “Mn absorbed above metabolic need” value in series [3] is “approximately 1.1 mg”.
